# US11629201B2, “PSMA-binding agents and uses thereof” (ITM Isotope Technologies Munich SE, priority 2017, dated 2023)
# Assays:
# [1] = test system: prostate adenocarcinoma with metastases; assay: Individual curative trial, SPECT-CT, Lutetium-177 labeled compound (Case 1); type: in vivo, human; settings: patient, radiolabeled with Lutetium-177
# Experimental: The compound PSMA-ALB-06, radiolabeled with therapeutic radionuclide Lutetium-177 was used in the scope of an individual curative trial in a patient with mildly differentiated prostate adenocarcinoma with extensive bilobar liver metastases, as well as disseminated osteoblastic metastases (in the pelvic region), and polytopic voluminous lymph node metastases. The evaluation of the biodistribution and in vivo behavior of the radiolabeled compound PSMA-ALB-06 was performed by means of SPECT-CT measurements.
# The SPECT-CT visualization was performed at different time points up to 46 hours post injection (p.i.). […] The blood clearance is completed within first hours, whereas the unspecific uptake in healthy organs (especially liver, salivary and kidney) remains moderate over the time.
# [2] = test system: metastatic castration-resistant prostate cancer; assay: Individual curative trial, PET-CT, Gallium-68 labeled compound (Case 2); type: in vivo, human; settings: patient; radiolabeled with Gallium-68
# Source text: The compound PSMA-ALB-06, radiolabeled with a positron emitting radionuclide Gallium-68 was used in an individual curative trial in a patient with metastatic castration-resistant prostate cancer as a diagnostic agents for PET-CT. […] The high contrast of the images increases over the time after injection confirming the prolonged blood clearance and high specific uptake in the tumors.
smiles,measurement,setting,value
Cc1ccc(CCCC(=O)NCCCCC(NC(=O)CN2CCN(CC(=O)O)CCN(CC(=O)O)CCN(CC(=O)O)CC2)C(=O)NCC2CCC(C(=O)NC(Cc3ccc4ccccc4c3)C(=O)NCCCCC(NC(=O)NC(CCC(=O)O)C(=O)O)C(=O)O)CC2)cc1 (stereo not drawn) [PSMA-ALB-06],uptake in malignant tissues (SPECT-CT),[1],substantial specific uptake of the radiolabeled compound in malignant tissues
same,blood circulation and bioavailability,[1]; up to 46 hours p.i.,prolonged blood circulation and improved bioavailability
same,visualization of malignant tissues (PET),[2],Malignant tissues could be visualized by means of PET with high specificity
